Where a name gives a salt, the structure may show the parent alone.
How the values were obtained:
Assay in all cases: Cytotoxicity in vitro in the presence and absence of elastase (MTT assay)
SUM149 = assay type: cell-based; settings: SUM149 cells, 72 h
Procedure: (§1) Cultivation of cells was performed according to standard procedures with the media recommended by the provider. The cells, in a total volume of 100 μL, were seeded in a 96-well plate with a white bottom (#3610). After a 24 h incubation period at 37° C. and 5% CO2, the medium was exchanged by adding 90 μL fresh medium. The treatment started by adding the test compound in 10 μL of culture medium to the cells in triplicates. Concentrations ranging from 10^−5 M to 10^−13 M were chosen. Two identically treated sets of samples were prepared. One set was treated with the test compound alone, whereas to the second set the compound and 10 nM elastase was added followed by a 72 h incubation period at 37° C. and 5% CO2. The proliferation was detected using the MTT assay (ATCC). At the end of the incubation period the MTT reagent was added to all samples for 4h. Lysis of the cells followed by addition of the detergent was done overnight. The formed dye was detected at 570 nm. The proliferation of untreated but otherwise identically handled cells was define as the […].

NCI H292 = assay type: cell-based, human; settings: NCI H292 cells, 72 h
Procedure: as §1

786-O = assay type: cell-based, human; settings: 786-O cells, 72 h
Procedure: as §1

HT29 = assay type: cell-based, human; settings: HT29 cells, 72 h
Procedure: as §1

Structure (SMILES)	IC50 (SUM149; compound alone (no elastase))	IC50 (SUM149; with 10 nM elastase)	IC50 (NCI H292; compound alone (no elastase))	IC50 (NCI H292; with 10 nM elastase)	IC50 (786-O; compound alone (no elastase))	IC50 (786-O; with 10 nM elastase)	IC50 (HT29; compound alone (no elastase))	IC50 (HT29; with 10 nM elastase)
CCCNC(=O)Nc1cccc(S(=O)(=O)Nc2cccc([C@@H](CC(=O)O)NC(=O)Nc3ccc(NC(=O)NCCCCN(C)CCN(C)CCN(C)CC(=O)N[C@@H](CCCCNC(=O)CN(C)CCN(C)CCN(C)CCNC(=O)Nc4ccc(NC(=O)N[C@H](CC(=O)O)c5cccc(NS(=O)(=O)c6cccc(NC(=O)NCCC)c6)c5)cc4)C(=O)NCCN(C)CCN(C)CCN(C)CC(=O)N[C@@H](CC(N)=O)C(=O)N4CCC[C@H]4C(=O)N[C@H](C(=O)O[C@]4(CC)C(=O)OCc5c4cc4n(c5=O)Cc5c-4nc4ccccc4c5CC)C(C)C)cc3)c2)c1 [Compound A7]	1.1 to 10 nM	0.1 to 1 nM	1.1 to 10 nM	0.1 to 1 nM	10 to 100 nM	0.1 to 1 nM	10 to 100 nM	0.1 to 1 nM
CCCNC(=O)Cc1cccc(S(=O)(=O)Nc2cccc([C@H](CC(=O)O)NC(=O)Nc3ccc(NC(=O)NCCOCCOCCOCCC(=O)N[C@@H](CCCCNC(=O)CCOCCOCCOCCNC(=O)Nc4ccc(NC(=O)N[C@@H](CC(=O)O)c5cccc(NS(=O)(=O)c6cccc(NC(=O)NCCC)c6)c5)cc4)C(=O)NCCN(C)CCN(C)CCN(C)CC(=O)N[C@@H](CC(N)=O)C(=O)N4CCC[C@H]4C(=O)N[C@H](C(=O)O[C@]4(CC)C(=O)OCc5c4cc4n(c5=O)Cc5c-4nc4ccccc4c5CC)C(C)C)cc3)c2)c1 [Compound A6]	1.1 to 10 nM	0.01 to 0.1 nM	1.1 to 10 nM	0.1 to 1 nM	10 to 100 nM	0.1 to 1 nM	10 to 100 nM	0.1 to 1 nM
CCCNC(=O)Nc1cccc(S(=O)(=O)Nc2cccc([C@@H](CC(=O)OCC[N+](C)(C)C)NC(=O)Nc3ccc(NC(=O)NCCOCCOCCOCCC(=O)N[C@@H](CC(=O)OCC[N+](C)(C)C)C(=O)N4CCC[C@H]4C(=O)N[C@H](C(=O)O[C@]4(CC)C(=O)OCc5c4cc4n(c5=O)Cc5c-4nc4ccccc4c5CC)C(C)C)cc3)c2)c1 [Compound C9]	10 to 100 nM	0.1 to 1 nM	10 to 100 nM	0.1 to 1 nM	10 to 100 nM	1.1 to 10 nM	10 to 100 nM	0.1 to 1 nM
CCCNC(=O)Nc1cccc(S(=O)(=O)Nc2cccc([C@@H](CC(=O)O)N(C(=O)NC(N)=O)c3ccc(NCCCCOC(=O)C[C@H](NC(=O)CCOCCOCCOCCNc4ccc(N(C(=O)NC(N)=O)[C@H](CC(=O)O)c5cccc(NS(=O)(=O)c6cccc(NC(=O)NCCC)c6)c5)cc4)C(=O)N4CCC[C@H]4C(=O)N[C@H](C(=O)O[C@]4(CC)C(=O)OCc5c4cc4n(c5=O)Cc5c-4nc4ccccc4c5CC)C(C)C)cc3)c2)c1 [Compound C4]	1.1 to 10 nM	0.01 to 0.1 nM	1.1 to 10 nM	0.01 to 0.1 nM	10 to 100 nM	0.01 to 0.1 nM	> 100 nM	0.01 to 0.1 nM
CCCNC(=O)Nc1cccc(S(=O)(=O)Nc2cccc([C@H](CC(=O)O)NC(=O)Nc3ccc(NC(=O)NCCN(C)CCN(C)CCN(C)CC(=O)NCCN(C)CCN(C)CCN(C)CC(=O)N[C@@H](CC(N)=O)C(=O)N4CCC[C@H]4C(=O)N[C@H](C(=O)O[C@]4(CC)C(=O)OCc5c4cc4n(c5=O)Cc5c-4nc4ccccc4c5CC)C(C)C)cc3)c2)c1 [Compound D2]	1.1 to 10 nM	0.1 to 1 nM	10 to 100 nM	0.1 to 1 nM	10 to 100 nM	0.1 to 1 nM	10 to 100 nM	0.1 to 1 nM
CCCNC(=O)Nc1cccc(S(=O)(=O)Nc2cccc([C@@H](CC(=O)O)NC(=O)Nc3ccc(NC(=O)NCCOCCOCCOCCC(=O)N[C@@H](CC(=O)OCC[N+](C)(C)C)C(=O)N4CCC[C@H]4C(=O)N[C@H](C(=O)O[C@]4(CC)C(=O)OCc5c4cc4n(c5=O)Cc5c-4nc4ccccc4c5CC)C(C)C)cc3)c2)c1 [Compound C1, trifluoroacetate]	10 to 100 nM	0.01 to 0.1 nM	10 to 100 nM	0.01 to 0.1 nM	10 to 100 nM	0.01 to 0.1 nM	10 to 100 nM	0.01 to 0.1 nM
CCCNC(=O)Nc1cccc(S(=O)(=O)Nc2cccc([C@@H](CC(=O)O)NC(=O)Nc3ccc(NC(=O)NCCN(C)CCN(C)CCN(C)CC(=O)NCC(=O)N4CCC[C@H]4C(=O)N[C@H](C(=O)O[C@]4(CC)C(=O)OCc5c4cc4n(c5=O)Cc5c-4nc4ccccc4c5CC)C(C)C)cc3)c2)c1 [Compound B2, (4S)-4,11-diethyl-3,14-dioxo-3,4,12,14-tetrahydro-1H-pyrano[3′,4′:6,7]indolizino[1,2-b]quinolin-4-yl N-{2-[{2-[{2-[({4-[({(1R)-2-carboxy-1-[3-({3-[(propylcarbamoyl)amino]benzene-1-sulfonyl}amino)phenyl]ethyl}carbamoyl)amino]phenyl}carbamoyl)amino]ethyl}(methyl)amino]ethyl}(methyl)amino]ethyl}-N-methylglycylglycyl-L-prolyl-L-valinate]	0.1 to 1 nM	< 0.01 nM	1.1 to 10 nM	< 0.01 nM	1.1 to 10 nM	< 0.01 nM	10 to 100 nM	< 0.01 nM
CCCNC(=O)Nc1cccc(S(=O)(=O)Nc2cccc([C@@H](CC(=O)OCCCN)NC(=O)Nc3ccc(NC(=O)NCCOCCOCCOCCC(=O)N[C@@H](CC(=O)OCCCN)C(=O)N4CCC[C@H]4C(=O)N[C@H](C(=O)O[C@]4(CC)C(=O)OCc5c4cc4n(c5=O)Cc5c-4nc4ccccc4c5CC)C(C)C)cc3)c2)c1 [Compound C8]	1.1 to 10 nM	0.1 to 1 nM	1.1 to 10 nM	0.1 to 1 nM	10 to 100 nM	0.1 to 1 nM	> 100 nM	0.1 to 1 nM
CCCNC(=O)Nc1cccc(S(=O)(=O)Nc2cccc([C@@H](CC(=O)O)NC(=O)Nc3ccc(NC(=O)NCCN(C)CCN(C)CCN(C)CC(=O)N[C@@H](CC(N)=O)C(=O)N4CCC[C@H]4C(=O)N[C@H](C(=O)O[C@]4(CC)C(=O)OCc5c4cc4n(c5=O)Cc5c-4nc4ccccc4c5CC)C(C)C)cc3)c2)c1 [Compound B4, (4S)-4,11-Diethyl-3,14-dioxo-3,4,12,14-tetrahydro-1H-pyrano[3′,4′:6,7]indolizino[1,2-b]quinolin-4-yl N-{2-[{2-[{2-[({4-[({(1R)-2-carboxy-1-[3-({3-[(propylcarbamoyl)amino]benzene-1-sulfonyl}amino)phenyl]ethyl}carbamoyl)amino]phenyl}carbamoyl)amino]ethyl} (methyl)amino]ethyl} I(methyl)amino]ethyl}-N-methylglycyl-L-asparaginyl-L-prolyl-L-valinate]	1.1 to 10 nM	< 0.01 nM	10 to 100 nM	0.01 to 0.1 nM	10 to 100 nM	0.01 to 0.1 nM	10 to 100 nM	0.01 to 0.1 nM
CCCNC(=O)Nc1cccc(S(=O)(=O)Nc2cccc([C@@H](CC(=O)O)NC(=O)Nc3ccc(NC(=O)NCCN(C)CCN(C)CCN(C)CC(=O)NCCN(C)CCN(C)CCN(C)CC(=O)N[C@@H](CC(N)=O)C(=O)N4CCC[C@H]4C(=O)N[C@H](C(=O)O[C@]4(CC)C(=O)OCc5c4cc4n(c5=O)Cc5c-4nc4ccccc4c5CC)C(C)C)cc3)c2)c1 [Compound D1]	10 to 100 nM	0.1 to 1 nM	10 to 100 nM	1.1 to 10 nM	10 to 100 nM	1.1 to 10 nM	10 to 100 nM	1.1 to 10 nM
CCCNC(=O)Nc1cccc(S(=O)(=O)Nc2cccc([C@@H](CC(=O)OCCCCN)NC(=O)Nc3ccc(NC(=O)NCCOCCOCCOCCC(=O)N[C@@H](CC(=O)OCCCCN)C(=O)N4CCC[C@H]4C(=O)N[C@H](C(=O)O[C@]4(CC)C(=O)OCc5c4cc4n(c5=O)Cc5c-4nc4ccccc4c5CC)C(C)C)cc3)c2)c1 [Compound C7]	1.1 to 10 nM	< 0.01 nM	1.1 to 10 nM	0.01 to 0.1 nM	10 to 100 nM	0.1 to 1 nM	> 100 nM	0.1 to 1 nM
CCCNC(=O)Nc1cccc(S(=O)(=O)Nc2cccc([C@H](CC(=O)O)NC(=O)Nc3ccc(NC(=O)NCCN(C)CCN(C)CCN(C)CC(=O)NCCCC[C@H](NC(=O)CN(C)CCN(C)CCN(C)CCNC(=O)Nc4ccc(NC(=O)N[C@@H](CC(=O)O)c5cccc(NS(=O)(=O)c6cccc(NC(=O)NCCC)c6)c5)cc4)C(=O)NCCN(C)CCN(C)CCN(C)CC(=O)N[C@@H](CC(N)=O)C(=O)N4CCC[C@H]4C(=O)N[C@H](C(=O)O[C@]4(CC)C(=O)OCc5c4cc4n(c5=O)Cc5c-4nc4ccccc4c5CC)C(C)C)cc3)c2)c1 [Compound A8]	1.1 to 10 nM	0.1 to 1 nM	1.1 to 10 nM	0.1 to 1 nM	10 to 100 nM	0.1 to 1 nM	10 to 100 nM	0.1 to 1 nM
